Data taken from US9867795B2, “Nitrated lipids and methods of making and using thereof” (The UAB Research Foundation, priority 2004, dated 2018).
Several values for one entry are separate records, joined by “and”; a condition that tells them apart may be missing. Equal values may be shown once. Entries after “also recorded” stand apart in the source; their conditions may differ.

Columns and labels:
3T3-L1 preadipocytes = details: for 3T3-L1 preadipocyte differentiation induced: two weeks, oil red O, LNO2 3 μM, OA-NO2 1 μM
[1] = Storage stability in CH3OH under argon at −80° C.; type: physicochemical; details: in CH3OH/methanol under argon at −80° C.
Protocol: LNO2 synthesis. Linoleic acid/HgCl2/phenylselenium bromide/NaNO2 (1:1.3:1:1, mol/mol) were combined in THF/acetonitrile (1:1, v/v) with a final concentration of 0.15 M linoleic acid. Care was taken to use anhydrous solvents, dry glassware and reagents that had been dried in vacuo over phosphorus pentoxide. The reaction mixture was stirred (4 h, 25° C.) followed by centrifugation to sediment the precipitate. The supernatant was recovered, the solvent evaporated in vacuo, the product mixture redissolved in THF (original volume) and the temperature reduced to 0° C. A 10-fold molar excess of H2O2 was slowly added with stirring to the mixture then allowed to rest in an ice bath for 20 min followed by a gradual warming to room temp (45 min). The product mixture was extracted with equal parts saturated NaCl and diethyl ether, the organic phase collected, the solvent removed in vacuo and the lipid products were resolvated in CH2Cl2/CH3OH (4:1, v/v). […] Under these conditions, purified nitrated linoleic acid is stable for >3 months. Large scale purification of the individual positional isomers was performed by preparative HPLC using a 250×21.2 mm C18 Phenomenex Luna column (5 μm particle size). […]

3T3-L1 adipocytes = assay: [^3H]-2-Deoxy-D-glucose uptake assay in differentiated 3T3-L1 adipocytes; type: cell-based; details: test compounds for 2 days; LNO2 1-10 μM
Protocol: [^3H]-2-Deoxy-D-glucose Uptake Assay in Differentiated 3T3-L1 Adipocyte. [^3H]-2-Deoxy-D-glucose uptake assay as previously described (19) 3T3-L1 preadipocytes were grown in 24-well tissue culture plates, 2-day postconfluent preadipocytes were treated by 10 μg/ml insulin (Sigma), 1 μM dexamethasone (Sigma), and 0.5 mM 3-isobutyl-1-methylxanthine (Sigma) in DMEM containing 10% FBS for two days, then cells were kept in 10 μg/ml insulin also in DMEM containing 10% FBS for 6 days (changed medium every three days). Eight days after induction of adipogenesis, test compounds in DMEM containing 10% FBS were added for an additional 2 days (changed medium every day) and PPARγ-specific antagonist GW9662 were pretreated 1 h before other additions. After two rinses with serum-free DMEM, cells were incubated for 3 h in serum-free DMEM and rinsed at room temperature three times with freshly prepared KRPH buffer (5 mM phosphate buffer, 20 mM HEPES, 1 mM MgSO4, 1 mM CaCl2, 136 mM NaCl, 4.7 mM KCl, pH 7.4). The buffer was replaced with 1 μCi/ml of [^3H]-2-deoxy-D-glucose in KRPH buffer for 10 min at room temperature. The treated cells were rinsed carefully three times with cold PBS, lysed overnight in 0.8N NaOH (0.4 ml/well), and neutralized with […] of 12N HCl. Lysate (360 μl) was added to 4 ml Scinti-Safe Plus TM 50% in a scintillation vial, and the vials were mixed and counted.
[^3H]-2-Deoxy-D-glucose uptake assay in differentiated 3T3-L1 adipocytes. [^3H]-2-deoxy-D-glucose uptake was analyzed as previously (23). […] Cells were then rinsed three times with cold PBS, lysed overnight in 0.8 N NaOH (0.4 ml/well), neutralized with 26.6 μl of 12 N HCl and 360 μl of lysate was added into 4 ml Scinti-Safe Plus™ 50% for radioactivity determination by liquid scintillation counting.

[2] = LNO2 and OA-NO2 decay in phosphate buffer; type: physicochemical; details: 3 μM, 100 mM phosphate buffer, pH 7.4, 37° C.
Protocol: LNO2 and OA-NO2 decay. […] During the two hour incubation, aliquots were removed and analyzed for LNO2 and OA-NO2 content. […] Non-decayed LNO2 and OA-NO2 were quantitated via HPLC ESI-MS/MS as described above.

NF-kB pathways = assay: NF-kB pathway activity (NFkB-response element luciferase reporter, IkB degradation); type: cell-based; details: reporter in response to TNFa; IkB degradation in response to E. coli LPS

9- and 10-nitro-9-cis-octadecenoic acid [OA-NO2]
3T3-L1 preadipocyte differentiation induced (3T3-L1 preadipocytes): ~60%
time stable on storage [1]: > 3 months
[^3H]-2-deoxy-D-glucose uptake (3T3-L1 adipocytes): induced an increase; also recorded: induced significant increases in glucose uptake
decay after 2 hr [2]: only minimal decay
share degraded after 2 hr [2]: 25%

10-nitro-9,12-octadecadienoic acid and 12-nitro-9,12-octadecadienoic acid [LNO2]
expression of adipocyte markers (PPARγ2 and aP2) (3T3-L1 preadipocytes; immunoblot of cell lysate): resulted in expression of specific adipocyte markers
3T3-L1 preadipocyte differentiation induced (3T3-L1 preadipocytes): > 30% and ~30%
activity of NF-kB pathways (NF-kB pathways): inhibits activity of NF-kB pathways
time stable on storage [1]: > 3 months
[^3H]-2-deoxy-D-glucose uptake (3T3-L1 adipocytes): dose-dependent increase in glucose uptake; also recorded: greater than that observed for equimolar 15-deoxy-PGJ2, equivalent to Rosiglitazone; also recorded: paralleled
share degraded after 2 hr [2]: ~80%
